Source: patent publication US20240165093A1, “METHODS FOR TREATING FAMILIAL CHYLOMICRONEMIA SYNDROME” (AMRYT PHARMACEUTICALS INC., priority 2021, published 2024)
“And” between values parts separate entries of the source, which are not always exact repeats. Identical values can stand only once.

Key:
[1] = test system: patients with Familial Chylomicronemia Syndrome (FCS); assay: Clinical study of lomitapide in patients with FCS: fasting lipids, lipoproteins, pancreatitis episodes (26 weeks); type: in vivo
Description: This clinical study evaluated the safety, tolerability, and efficacy of Lomitapide in patients with Familial Chylomicronemia Syndrome (FCS).
Patients were screened for eligibility between 12 to 6 weeks before the first dose of Lomitapide (screening period). After screening period, all enrolled patients entered a run-in phase of at least 6 weeks during which lipid-lowering therapy, daily dietary supplementation of vitamin E, essential fatty acids and a low-fat diet are instituted and stabilized. At the end of the run-in phase, the patients entered into a 26-week efficacy phase, during which they receive lomitapide in addition to their lipid-lowering therapy. Patients must follow a diet comprising <10% energy from fat per day during all the study.
All patients who meet the eligibility criteria, and after 6-week diet period (run-in) were treated with Lomitapide 5 mg, 10 mg, 15 mg, 20 mg, 30 mg, 40 mg, 50 mg up to 60 mg daily based on lipid profile and tolerability. Patients remain at their maximum dose until the end of 26 weeks.
(§1) Treatment was initiated at 5 mg once daily, and the dose titrated based on acceptable safety/tolerability. After a minimum of 2 weeks at 5 mg once daily the dose was then titrated at a minimum of 4-week intervals to 10 mg, 20 mg, 40 mg, and 60 mg/day (e.g., as shown in the table below) or until an individually determined maximum dose (e.g., in the range of 5-60 mg/day) was reached based on lipid profile, and safety/tolerability. Dose adjustments were also made according to liver transaminase levels. If subjects experienced confirmed alanine aminotransferase (ALT) or aspartate aminotransferase (AST) elevations between 3-5×ULN, or >100 U/L but <200 U/L above the baseline value, the dose of lomitapide was reduced to the previously tolerated dose level, with the possibility to re-escalate dose once transaminase elevations were resolved. Once a maximum dose was established, patients remained on this dose up to Week 26.
(§2) Lipid levels and safety indices, including liver function tests, were evaluated at baseline, before each dose increase, and then every 4 weeks until week 26.
The Primary Endpoint was percent change in tryglycerides (TG) at the maximum tolerated dose compared to baseline after 26 weeks of treatment in combination with other lipid lowering therapy in patients with Familial Chylomicronemia Syndrome (FCS).
(§3) Secondary endpoints include other lipid parameters, hepatic fat and liver stiffness and Chylomicron kinetics of Lomitapide in combination with other lipid lowering agents in term of changes at 26 weeks from baseline. Including: • a) Percent change in TC, non-HDL-C, LDL-C, VLDL, Lp(a), as well as apolipoproteins B and A1. • b) Safety of Lomitapide in patients with FCS assessed by changes in laboratory parameters, electrocardiogram, physical examinations and weight. • c) Record of episodes of pancreatitis • d) Change in hepatic fat liver stiffness measured by MRI and/or Transient Elastography (Fibroscan). • e) Chylomicron kinetics.
To enable collection of data for the primary and other endpoints a fasting lipid and safety panel, including liver function tests, was obtained at baseline, prior to each dose escalation, and every 4 weeks thereafter until Week 26. Blood was drawn at baseline and at each visit following a 12 hour fast. Testing included a standard metabolic panel, a complete blood count, urinalysis. Ten patients underwent a metabolic study to determine postprandial chylomicron metabolism and fatty acid profile. Available samples were separated by centrifugation and immediately stored at −80° C. and were shipped in dry ice at the end of the study for analysis.
Lipid and lipoprotein analyses were conducted on serum samples. Total cholesterol (TC), high density lipoprotein-cholesterol (HDL-C), and TGs were measured enzymatically. Non-HDL-C was calculated by subtracting HDL-C levels from TC levels. ApoA-I, apoB and Lp(a) were measured by immunonephelometry. […]

[2] = test system: patients with Familial Chylomicronemia Syndrome (FCS); assay: Clinical study in FCS patients: hepatic fat (MRI), liver stiffness, NFS and FIB-4 scores; type: in vivo, human
Description: as §3
Percentage hepatic fat was determined by magnetic resonance imaging (MRI) at baseline and Week 26. The MRI protocol included a dual-phase sequence and the IDEAL IQ sequence. Post-processing software, provided by the manufacturer, was used to generate fat fraction maps. A radiologist trained in abdominal imaging imaged four 1 cm^2 regions of interest (ROIs) to measure in-phase signal intensities of the liver parenchyma. ROIs were copied from the in-phase images to the opposed-phase to ensure identical size and location. Focal hepatic lesions, major branches of portal or hepatic veins, and artifacts were avoided. The mean of the signal intensity of the liver was calculated as the average value of the four signal intensities of the liver parenchyma both in the in-phase and in the opposed phase. The hepatic fat fraction was then calculated with the following formula: 100×(signal intensityIP−signal intensityOP)/(2×signal intensityIP). Finally, ROIs were also copied in the HFF Axial IDEAL IQ map to ensure identical size and location (this map was not available in one patient). The liver ROIs placed on the IDEAL-IQ fat fraction reconstruction were used to generate estimates of percentage fat.
Noninvasive quantification of liver stiffness (LSM) in kPa (estimated fibrosis score: F0 to F1: 2-7 kPa; F2: 7.5-10 kPa; F3: 10-14 kPa; F4: […]) was measured by ultrasound-based transient elastography using FibroScan® or shear wave elastography. Non-alcoholic fatty liver disease fibrosis score (NFS) and fibrosis-4 (FIB-4) score were calculated according to Angulo et al (2007) (Angulo P, Hui J M, Marchesini G, et al. The NAFLD fibrosis score: a noninvasive system that identifies liver fibrosis in patients with NAFLD. Hepatology 2007; 45(4), which is incorporated by reference herein.
Numeric parameters were expressed as median values and 97.5% confidence intervals, while dichotomous variables were expressed as proportions. Differences in numeric parameters were evaluated by the Exact Wilcoxon-Mann-Whitney Test (R CRAN “coin” package). Differences in proportions were evaluated by the Chi Square test. Percentual reductions of numeric variables at Week 26 were expressed as median values (with 97.5% confidence intervals) of the individual patients' variations from Week 0. Correlation of TG percent reduction with lomitapide dose was calculated by partial Spearman's correlation adjusting for TG baseline absolute values (R CRAN ‘ppcor’ package). All calculations were performed by the R statistical software Version 4.04 under the RStudio Version 1.3.1093 interface.

[3] = test system: patients with Familial Chylomicronemia Syndrome (FCS); assay: Clinical study in FCS patients: safety and tolerability (adverse events, liver function tests, maximum dose); type: in vivo, human
Method: as §1, §2, §3
Adverse events (AEs) were coded using MedDRA, Version 11.0. AEs were judged by the investigators as not related, unlikely, possibly, probably or definitely related to study drug and were reviewed regularly by an independent Data and Safety Monitoring Board.

[4] = 18 subjects, baseline to Week 26

O=C(NC1CCN(CCCCC2(C(=O)NCC(F)(F)F)c3ccccc3-c3ccccc32)CC1)c1ccccc1-c1ccc(C(F)(F)F)cc1 [lomitapide, N-(2,2,2-trifluoroethyl)-9-[4-[4-[[[4′(trifluoromethyl) [1,1′-biphenyl]-2-yl]carbonyl]amino]-1-piperidinyl]butyl]-9H-fluorene-9carboxamide]
episodes of acute pancreatitis or severe abdominal pain during treatment ([1]; 26 weeks, all patients with history of acute pancreatitis): No patient experienced an episode of acute pancreatitis or severe abdominal pain
range of TG decrease in the six subjects with decreases up to 50% ([1]; Week 26): 18.25-49.71%
reduction in TG levels from baseline ([1]; Week 26, n=18, p<0.0001): 70.5%
patients with TG reduction >70% ([1]; Week 26, nine of 18 patients): 50%
subjects achieving TG levels <750 mg/dL (<8.5 mmol/L) ([1]; Week 26, of 18): Thirteen
subjects with decreases in TG up to 50% ([1]; Week 26, six of 18 subjects): 33.3%
patients achieving TG levels <500 mg/dL (<5.6 mmol/L) ([1]; Week 26, ten of 18): 55.6%
patients with TG reduction >50% ([1]; Week 26, twelve of 18 patients): 66.7%
mean dose when patients crossed the threshold of <500 mg/dL triglycerides ([1]; daily dose): 27 mg
mean dose when patients crossed the threshold of <750 mg/dL triglycerides ([1]; daily dose): 24 mg
mean dose when patients crossed the threshold of <1000 mg/dL triglycerides ([1]; daily dose): 18 mg
median dose when patients crossed the threshold of <500 mg/dL triglycerides ([1]; daily dose): 20 mg
median dose when patients crossed the threshold of <750 mg/dL triglycerides ([1]; daily dose): 20 mg
median dose when patients crossed the threshold of <1000 mg/dL triglycerides ([1]; daily dose): 10 mg
Lp(a) levels, difference from baseline to Week 26 ([1]; in words): No significant differences
hsCRP levels, difference from baseline to Week 26 ([1]; in words): No significant differences
fasting triglyceride levels compared to baseline ([1]; in words, over 26 weeks): significant reduction
patients achieving triglyceride plasma levels <1000 mg/dL ([1]; n=14 of 18): 77.8%
hsCRP, median at Week 26 ([1]; n=18, Week 26 (baseline 1.2)): 1.24 mg/L
Lp(a), median at Week 26 ([1]; n=18, Week 26 (baseline 6)): 5.5 nmol/L
HDL-C, median at Week 26 ([1]; n=18, Week 26 (baseline 16)): 18 mg/dL
ApoB, median at Week 26 ([1]; n=18, Week 26 (baseline 81.85)): 39.25 mg/dL
ApoA-I, median at Week 26 ([1]; n=18, Week 26 (baseline 93.7)): 74.95 mg/dL
non-HDL-C, median at Week 26 ([1]; n=18, Week 26 (baseline 184)): 90.0 mg/dL
TC, median at Week 26 ([1]; n=18, Week 26 (baseline 205.5)): 94 mg/dL
ApoA-I, median of individual changes from baseline % ([1]; n=18, baseline to Week 26): −28.1% and −23.0%
ApoB, median of individual changes from baseline % ([1]; n=18, baseline to Week 26): −43.8%
HDL-C, median of individual changes from baseline % ([1]; n=18, baseline to Week 26): 20.7% and +20.7%
Lp(a), median of individual changes from baseline % ([1]; n=18, baseline to Week 26): +40.5%
TC, median of individual changes from baseline % ([1]; n=18, baseline to Week 26): −51.7%
hsCRP, median of individual changes from baseline % ([1]; n=18, baseline to Week 26): 9.8%
non-HDL-C, median of individual changes from baseline % ([1]; n=18, baseline to Week 26): −50.0%
TG, median of individual changes from baseline % ([1]; n=18, baseline to Week 26, primary endpoint): −70.5%
TG, median at Week 26 ([1]; n=18 FCS patients, fasting, lomitapide at maximum tolerated dose plus lipid-lowering therapy, Week 26 (baseline 1803.5)): 305.0 mg/dL
Hepatic fat content on MRI, median at Week 26 ([2]; 9 subjects, Week 26 (baseline 12.0)): 32.5%
Hepatic fat content on MRI, individual change from baseline, % ([2]; 9 subjects, baseline to Week 26): +146.4%
LSM (liver stiffness measurement), median at Week 26 ([2]; 14 subjects, Week 26 (baseline 5.7)): 5.5 kPa
FIB-4, median at Week 26 ([2]; 18 subjects, Week 26 (baseline 0.76)): 1.03
NFS, median at Week 26 ([2]; 18 subjects, Week 26 (baseline 0.786)): 0.428
FIB-4, individual change from baseline, % [2, 4]: +38.44%
NFS, individual change from baseline, % [2, 4]: −51.69%
non-invasive liver fibrosis measurements (liver stiffness, FIB-4 and NFS scores), change ([2]; baseline to Week 26, in words): No significant changes
hepatic fat content at week 26 in 3 patients with an increase ([2]; liver MRI): 30-50%
patients completing the study (26 weeks) ([3]; 18 enrolled): 100%
elevations in bilirubin or alkaline phosphatase levels ([3]; 26 weeks): No subject experienced elevations
tolerability of treatment ([3]; 26 weeks, in words): well tolerated
permanent discontinuation due to liver transaminase elevations ([3]; increases managed by dose reduction or temporary interruption): No subject discontinued treatment permanently
median lomitapide maximum dose ([3]; individually determined by lipid profile, safety and tolerability, by Week 26, 18 subjects): 35 mg/day
severity of adverse events ([3]; mostly gastrointestinal tolerability and liver enzyme elevations): mild to moderate
